Test results published in ChEMBL document CHEMBL4184208, “Theoretical research in structure characteristics of different inhibitors and differences of binding modes with CBP bromodomain” (Bioorg Med Chem, 2018).

Target: CREB-binding protein/Histone acetyltransferase p300 (Homo sapiens, UniProt Q09472+Q92793)
Assay: Inhibition of human His-FLAG tagged CBP/EP300 (1082 to 1197 residues) using H4-TetraAc-biotin peptide as substrate after 90 mins by AlphaLISA method
Type: protein assay

Row | IC50 [µM] | SMILES
1 | 14 | C[C@@H]1CC(=O)Nc2ccccc2N1
2 | 0.47 | C[C@@H]1CC(=O)Nc2cccc(-c3cnn(C(C)(C)C)c3)c2N1
